Measured values taken from BigSolDB 2.1.

Cn1[nH]c(=O)c(=O)[nH]c1=S
Conditions	solubility (mole fraction)
in acetone, 293.25 K	0.015
in acetone, 298.25 K	0.0155
in acetone, 303.09 K	0.016
in acetone, 308.05 K	0.0168
in acetone, 312.79 K	0.0178
in acetone, 318.03 K	0.0186
in acetone, 323.07 K	0.0199
in acetone, 327.37 K	0.0209
in acetonitrile, 293.21 K	0.00221
in acetonitrile, 298.23 K	0.00248
in acetonitrile, 303.15 K	0.00268
in acetonitrile, 308.11 K	0.00299
in acetonitrile, 313.07 K	0.00333
in acetonitrile, 317.95 K	0.00375
in acetonitrile, 323.11 K	0.0042
in acetonitrile, 328.13 K	0.00463
in acetonitrile, 333.23 K	0.00521
in acetonitrile, 338.17 K	0.00585
in acetonitrile, 342.75 K	0.00654
in ethanol, 293.23 K	0.0125
in ethanol, 298.35 K	0.014
in ethanol, 303.33 K	0.0152
in ethanol, 308.29 K	0.0169
in ethanol, 313.47 K	0.0186
in ethanol, 318.47 K	0.0205
in ethanol, 323.41 K	0.0228
in ethanol, 328.23 K	0.0255
in ethanol, 333.53 K	0.0278
in ethanol, 338.63 K	0.0307
in ethanol, 343.33 K	0.0345
in ethyl acetate, 293.07 K	0.00574
in ethyl acetate, 298.49 K	0.00617
in ethyl acetate, 303.41 K	0.00643
in ethyl acetate, 308.49 K	0.00697
in ethyl acetate, 313.53 K	0.00747
in ethyl acetate, 318.67 K	0.00799
in ethyl acetate, 323.49 K	0.0086
in ethyl acetate, 328.61 K	0.00918
in ethyl acetate, 333.53 K	0.00985
in ethyl acetate, 338.23 K	0.0104
in ethyl acetate, 343.33 K	0.0111
in isopropanol, 293.11 K	0.00556
in isopropanol, 298.21 K	0.00663
in isopropanol, 303.13 K	0.00782
in isopropanol, 308.11 K	0.00915
in isopropanol, 312.87 K	0.0107
in isopropanol, 317.83 K	0.0124
in isopropanol, 323.07 K	0.0142
in isopropanol, 328.13 K	0.0164
in isopropanol, 333.09 K	0.0187
in isopropanol, 337.75 K	0.0217
in isopropanol, 342.67 K	0.0248
in n-butanol, 293.11 K	0.00872
in n-butanol, 298.23 K	0.00964
in n-butanol, 302.99 K	0.0109
in n-butanol, 308.11 K	0.0124
in n-butanol, 313.13 K	0.0141
in n-butanol, 318.05 K	0.0159
in n-butanol, 322.89 K	0.0178
in n-butanol, 328.13 K	0.02
in n-butanol, 333.39 K	0.0224
in n-butanol, 338.07 K	0.0255
in n-butanol, 343.23 K	0.0288
in n-propanol, 292.99 K	0.00859
in n-propanol, 298.33 K	0.00959
in n-propanol, 303.23 K	0.0108
in n-propanol, 308.23 K	0.0122
in n-propanol, 313.15 K	0.0139
in n-propanol, 318.23 K	0.0157
in n-propanol, 323.23 K	0.0176
in n-propanol, 328.47 K	0.0198
in n-propanol, 333.07 K	0.0223
in n-propanol, 338.33 K	0.0251
in n-propanol, 343.35 K	0.0286
in water, 293.23 K	0.00139
in water, 298.15 K	0.00158
in water, 302.93 K	0.00187
in water, 312.93 K	0.00263
in water, 317.65 K	0.00306
in water, 322.85 K	0.00366
in water, 327.77 K	0.00438
in water, 332.83 K	0.00522
in water, 337.35 K	0.00623
in water, 342.47 K	0.00748
